Experimental data taken from ChEMBL document CHEMBL3217415, “(Pd/C-mediated)couplingiodocyclizationcoupling strategy in discovery of novel PDE4 inhibitors: a new synthesis of pyrazolopyrimidines” (Medchemcomm, 2012).
pEC50, pIC50: −log10 of the molar value. Each block holds one compound with its values, some of them ahead of it. The source made the active and inactive calls. No cut-off for these calls is given here.

Assays:
[1] = target: T1, 3',5'-cyclic-AMP phosphodiesterase 4B (Homo sapiens, UniProt Q07343); test: Inhibition of His-tagged recombinant human PDE4B expressed in baculovirus infected sf9 cells using cAMP as substrate at 30 uM preincubated for 15 mins followed by substrate addition measured after 1 hr by luminescence assay
[2] = target: T1, 3',5'-cyclic-AMP phosphodiesterase 4B; test: Inhibition of His-tagged recombinant human PDE4B1 expressed in baculovirus infected sf9 cells using cAMP as substrate preincubated for 15 mins followed by substrate addition measured after 1 hr by luminescence assay
[3] = target: T2, 3',5'-cyclic-AMP phosphodiesterase 4D (Homo sapiens, UniProt Q08499); test: Inhibition of human PDE4D2 using cAMP substrate preincubated for 15 mins followed by substrate addition measured after 1 hr by luminescence assay
[4] = target: 3',5'-cyclic-AMP phosphodiesterase 4A (Homo sapiens, UniProt P27815); test: Inhibition of PDE4A4 (unknown origin) transfected in HEK293 cells assessed as forskolin-induced cAMP accumulation pretreated for 30 mins before forskolin challenge by luciferase reporter gene assay; format: cell-based
[5] = target: T1, 3',5'-cyclic-AMP phosphodiesterase 4B; test: Inhibition of PDE4B1 (unknown origin) transfected in HEK293 cells assessed as forskolin-induced cAMP accumulation pretreated for 30 mins before forskolin challenge by luciferase reporter gene assay; format: cell-based
[6] = target: T2, 3',5'-cyclic-AMP phosphodiesterase 4D; test: Inhibition of PDE4D3 (unknown origin) transfected in HEK293 cells assessed as forskolin-induced cAMP accumulation pretreated for 30 mins before forskolin challenge by luciferase reporter gene assay; format: cell-based
RAW264.7 = test: Inhibition of LPS-induced TNFalpha production in mouse RAW264.7 cells pretreated for 30 mins before LPS challenge by ELISA assay; format: functional, cell-based
Danio rerio [7] = species: Danio rerio; test: Toxicity in zebrafish embryo assessed as mortality at 10 to 20 uM after 1 to 24 hrs; format: organism-based; settings: in vivo
Danio rerio [8] = species: Danio rerio; test: Toxicity in zebrafish embryo assessed as effect on locomotory activity at 10 uM after 6 hrs; format: organism-based; settings: in vivo
Danio rerio [9] = species: Danio rerio; test: Toxicity in zebrafish embryo assessed as cardiac arrhythmia at 10 to 20 uM after 24 hrs by compound microscopy; format: organism-based, Heart; settings: in vivo
Danio rerio [10] = species: Danio rerio; test: Toxicity in zebrafish embryo assessed as increase in abnormal lesions at 10 to 20 uM after 24 hrs; format: organism-based; settings: in vivo
Danio rerio [11] = species: Danio rerio; test: Toxicity in zebrafish embryo assessed as effect on locomotory activity at 20 uM after 24 hrs; format: organism-based; settings: in vivo
Danio rerio [12] = species: Danio rerio; test: Toxicity in zebrafish embryo assessed as mortality at 100 uM after 1 to 24 hrs; format: organism-based; settings: in vivo
Danio rerio [13] = species: Danio rerio; test: Toxicity in zebrafish embryo assessed as effect on locomotory activity at 100 uM; format: organism-based; settings: in vivo
Danio rerio [14] = species: Danio rerio; test: Toxicity in zebrafish embryo assessed as lordosis at 10 to 20 uM after 1 to 24 hrs; format: organism-based; settings: in vivo
Danio rerio [15] = species: Danio rerio; test: Toxicity in zebrafish embryo assessed as effect on locomotory activity at 10 to 20 uM after 1 to 24 hrs; format: organism-based; settings: in vivo

T1 sequence (Q07343 whole entry): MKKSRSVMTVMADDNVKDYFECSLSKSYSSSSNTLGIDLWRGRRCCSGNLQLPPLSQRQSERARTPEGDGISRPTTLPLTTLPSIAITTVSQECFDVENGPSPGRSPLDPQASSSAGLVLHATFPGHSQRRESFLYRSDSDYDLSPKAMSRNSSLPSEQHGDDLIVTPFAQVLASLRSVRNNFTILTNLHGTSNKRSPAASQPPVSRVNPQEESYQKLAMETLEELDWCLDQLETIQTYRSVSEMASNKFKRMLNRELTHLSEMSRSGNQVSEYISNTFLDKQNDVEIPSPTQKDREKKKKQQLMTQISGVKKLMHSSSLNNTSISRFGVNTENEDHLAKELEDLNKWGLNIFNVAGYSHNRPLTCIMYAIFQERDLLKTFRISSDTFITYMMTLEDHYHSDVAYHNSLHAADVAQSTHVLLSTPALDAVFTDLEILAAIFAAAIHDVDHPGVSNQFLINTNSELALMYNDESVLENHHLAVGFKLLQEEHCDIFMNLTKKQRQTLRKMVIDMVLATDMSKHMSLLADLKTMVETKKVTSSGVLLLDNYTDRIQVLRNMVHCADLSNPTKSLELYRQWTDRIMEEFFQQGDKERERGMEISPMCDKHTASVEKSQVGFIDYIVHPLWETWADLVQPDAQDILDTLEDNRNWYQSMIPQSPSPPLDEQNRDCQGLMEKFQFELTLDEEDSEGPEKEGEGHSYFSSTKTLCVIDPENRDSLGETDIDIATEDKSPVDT
T2 sequence (Q08499 whole entry): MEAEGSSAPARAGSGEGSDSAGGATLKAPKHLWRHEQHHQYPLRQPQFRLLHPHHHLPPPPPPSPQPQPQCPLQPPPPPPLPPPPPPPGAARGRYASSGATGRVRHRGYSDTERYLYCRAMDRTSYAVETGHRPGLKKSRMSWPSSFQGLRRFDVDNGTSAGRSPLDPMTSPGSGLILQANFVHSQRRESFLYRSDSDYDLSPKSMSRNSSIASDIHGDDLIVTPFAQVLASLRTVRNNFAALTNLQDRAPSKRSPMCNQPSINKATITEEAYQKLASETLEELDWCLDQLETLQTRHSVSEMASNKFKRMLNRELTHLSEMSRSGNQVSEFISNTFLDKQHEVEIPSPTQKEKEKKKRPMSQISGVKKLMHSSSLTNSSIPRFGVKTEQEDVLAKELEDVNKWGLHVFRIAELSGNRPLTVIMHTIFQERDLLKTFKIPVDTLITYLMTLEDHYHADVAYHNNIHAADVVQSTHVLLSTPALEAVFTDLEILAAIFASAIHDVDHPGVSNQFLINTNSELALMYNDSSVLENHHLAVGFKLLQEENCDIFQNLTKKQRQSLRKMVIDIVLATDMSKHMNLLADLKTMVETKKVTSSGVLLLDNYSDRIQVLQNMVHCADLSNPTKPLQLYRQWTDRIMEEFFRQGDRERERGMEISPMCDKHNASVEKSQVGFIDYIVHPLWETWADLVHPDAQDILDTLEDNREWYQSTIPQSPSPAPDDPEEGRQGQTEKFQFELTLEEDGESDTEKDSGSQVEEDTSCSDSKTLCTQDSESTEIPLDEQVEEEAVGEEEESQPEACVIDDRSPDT
Chain of 3',5'-cyclic-AMP phosphodiesterase 4A (P27815 whole entry): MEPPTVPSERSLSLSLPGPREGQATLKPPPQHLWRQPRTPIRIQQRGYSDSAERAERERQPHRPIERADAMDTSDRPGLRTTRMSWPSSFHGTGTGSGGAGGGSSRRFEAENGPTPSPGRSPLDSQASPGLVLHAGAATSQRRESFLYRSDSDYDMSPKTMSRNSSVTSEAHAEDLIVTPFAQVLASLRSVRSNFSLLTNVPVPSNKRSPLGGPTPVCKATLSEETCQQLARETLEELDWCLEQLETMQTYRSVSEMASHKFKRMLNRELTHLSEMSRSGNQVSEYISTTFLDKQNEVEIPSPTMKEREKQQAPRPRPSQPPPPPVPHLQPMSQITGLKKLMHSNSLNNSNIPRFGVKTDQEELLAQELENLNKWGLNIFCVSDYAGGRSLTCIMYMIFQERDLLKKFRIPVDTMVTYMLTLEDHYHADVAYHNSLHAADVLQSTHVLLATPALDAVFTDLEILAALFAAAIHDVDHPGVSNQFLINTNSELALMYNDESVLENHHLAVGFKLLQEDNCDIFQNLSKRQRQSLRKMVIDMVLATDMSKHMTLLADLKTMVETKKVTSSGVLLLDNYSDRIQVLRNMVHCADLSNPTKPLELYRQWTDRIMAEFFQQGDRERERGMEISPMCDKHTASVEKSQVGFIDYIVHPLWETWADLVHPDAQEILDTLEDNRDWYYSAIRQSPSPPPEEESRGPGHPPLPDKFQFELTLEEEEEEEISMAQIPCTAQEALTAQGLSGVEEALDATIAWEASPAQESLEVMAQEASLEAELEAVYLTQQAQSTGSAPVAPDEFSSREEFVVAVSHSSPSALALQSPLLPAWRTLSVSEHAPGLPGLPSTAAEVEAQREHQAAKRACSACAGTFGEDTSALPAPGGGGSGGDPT

inhibition [1]: 50%
Compound: CCCCCC#Cc1c(-c2ccccc2)oc(=O)c2c1nn1c(-c3ccccc3)ccnc21

inhibition [1]: 74%
Compound: O=c1oc(-c2ccccc2)c(-c2cnc3ccccc3c2)c2nn3c(-c4ccccc4)ccnc3c12

inhibition [1]: 74%
Compound: O=c1oc(-c2ccccc2)c(-c2cccc([N+](=O)[O-])c2)c2nn3c(-c4ccccc4)ccnc3c12

inhibition [1]: 85%
Compound: CCCCCCc1oc(=O)c2c(nn3c(-c4ccccc4)ccnc23)c1-c1cccc(C(N)=O)c1

inhibition [1]: 66%
Compound: O=c1oc(-c2ccccc2)c(-c2ccc(F)cc2)c2nn3c(-c4ccccc4)ccnc3c12

Continued, compound first:

Compound: CCCCCCc1oc(=O)c2c(nn3c(-c4ccccc4)ccnc23)c1/C=C/C(=O)OC(C)(C)C
inhibition [1]: inactive

Compound: CCCCCCc1oc(=O)c2c(nn3c(-c4ccccc4)ccnc23)c1/C=C/C(=O)OCC
inhibition [1]: inactive

Compound: NC(=O)c1cccc(-c2c(-c3ccccc3)oc(=O)c3c2nn2c(-c4ccccc4)ccnc32)c1
inhibition [1]: 93%
pIC50 [2]: 5.88
pIC50 [3]: 5.55
pEC50 [4]: 4.93
pEC50 [5]: 5.20
pEC50 [6]: 5.02
pIC50 (RAW264.7): 6.35
Activity (Danio rerio [7]): Non-toxic
Activity (Danio rerio [8]): Toxic
Activity (Danio rerio [9]): Non-toxic
Activity (Danio rerio [10]): Non-toxic
Activity (Danio rerio [11]): Non-toxic

Compound: CC(C)(C)c1ccc(C(O)CCCN2CCC(C(O)(c3ccccc3)c3ccccc3)CC2)cc1 (stereo not drawn) [TERFENADINE]
Activity (Danio rerio [12]): Toxic
Activity (Danio rerio [13]): Toxic

Compound: CCCCCC#Cc1c(CCCCCC)oc(=O)c2c1nn1c(-c3ccccc3)ccnc21
inhibition [1]: 50%

Compound: COc1ccc(C2CNC(=O)C2)cc1OC1CCCC1 (stereo not drawn) [ROLIPRAM]
pIC50 (RAW264.7): 6.72
Activity (Danio rerio [7]): Toxic
Activity (Danio rerio [14]): Toxic
Activity (Danio rerio [15]): Toxic
Activity (Danio rerio [9]): Non-toxic
Activity (Danio rerio [10]): Toxic
